For the assay, the target named is T1, AAC(2′)-Ia (Providencia stuartii, UniProt Q52424).
T1 construct: AAC(2′)-Ia, N-terminal HIS-tag removed by thrombin
In words: crystal structure ([…] Å) and competitive inhibition assay. In kind it is biochemical.

T1 sequence (Q52424 whole entry): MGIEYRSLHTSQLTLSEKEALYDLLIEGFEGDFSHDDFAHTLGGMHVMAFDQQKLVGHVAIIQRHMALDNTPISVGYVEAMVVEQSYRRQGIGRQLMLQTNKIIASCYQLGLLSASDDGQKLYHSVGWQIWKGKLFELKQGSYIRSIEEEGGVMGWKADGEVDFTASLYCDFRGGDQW

On to `NCC[C@H](O)C(=O)N[C@@H]1C[C@H](N)[C@@H](O[C@H]2O[C@H](CN)[C@@H](O)[C@H](O)[C@H]2O)[C@H](O)[C@H]1O[C@H]1O[C@H](CO)[C@@H](O)[C@H](N)[C@H]1O` [amikacin], for which the affinity corresponds to a Ki of 87 ± 10 µM.
